Test results from patent US20230365592A1 (Agios Pharmaceuticals, Inc., priority 2022, published 2023).

Biological target: T1, human PAH with the R408W mutation (Homo sapiens, UniProt P00439, R408W)
T1 construct: expressed in transfected cells
T1 sequence (P00439 1-452 R408W): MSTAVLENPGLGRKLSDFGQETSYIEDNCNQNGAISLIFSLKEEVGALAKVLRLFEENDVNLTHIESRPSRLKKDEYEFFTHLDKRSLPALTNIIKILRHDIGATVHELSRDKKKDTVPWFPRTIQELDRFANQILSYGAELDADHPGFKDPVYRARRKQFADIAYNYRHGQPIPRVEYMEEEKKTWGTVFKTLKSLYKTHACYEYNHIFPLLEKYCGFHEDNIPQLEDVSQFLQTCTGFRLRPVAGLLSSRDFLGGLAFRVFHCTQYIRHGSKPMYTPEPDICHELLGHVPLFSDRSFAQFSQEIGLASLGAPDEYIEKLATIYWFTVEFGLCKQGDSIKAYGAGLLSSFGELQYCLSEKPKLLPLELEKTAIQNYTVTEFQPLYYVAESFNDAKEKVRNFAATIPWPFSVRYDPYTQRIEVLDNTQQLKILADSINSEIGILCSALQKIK
Assay: Cell Based Phenylalanine Flux Assay;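 further: after compound treatment, cells received sepiapterin plus isotope-labelled Phenylalanine for 4 hours, then labelled Tyrosine in the medium was quantified, 10-point 2-fold dilution series run in duplicate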
Conditions: A375 cells expressing human R408W PAH; 24 hrs compound incubation; 13C-Tyrosine by LC-MS; average where tested multiple times; read-out: AC50

Row | Structure (SMILES) | AC50
1 | C[C@@H](O)c1nc(C(F)F)c(C(=O)N2CCc3[nH]cnc3[C@H]2c2cc3ccccn3n2)o1 [Example 690, (4-(difluoromethyl)-2-((R)-1-hydroxyethyl)oxazol-5-yl)((S)-4-(pyrazolo[1,5-a]pyridin-2-yl)-6,7-dihydro-1H-imidazo[4,5-c]pyridin-5(4H)-yl)methanone] | < 500 nM
2 | C[C@H](O)c1nc(C(F)F)c(C(=O)N2CCc3[nH]cnc3[C@H]2c2cc3ccccn3n2)o1 [Example 692, (4-(difluoromethyl)-2-((S)-1-hydroxyethyl)oxazol-5-yl)((S)-4-(pyrazolo[1,5-a]pyridin-2-yl)-6,7-dihydro-1H-imidazo[4,5-c]pyridin-5(4H)-yl)methanone] | < 500 nM
3 | C[C@H](O)c1nc(C(F)F)c(C(=O)N2CCc3[nH]cnc3[C@@H]2c2cc3ccccn3n2)o1 [Example 693, (4-(difluoromethyl)-2-((S)-1-hydroxyethyl)oxazol-5-yl)((R)-4-(pyrazolo[1,5-a]pyridin-2-yl)-6,7-dihydro-1H-imidazo[4,5-c]pyridin-5(4H)-yl)methanone] | > 5000 nM
4 | CC(C)(C#N)c1nc(C(F)F)c(C(=O)N2CCc3[nH]cnc3[C@H]2c2cc3ccccn3n2)o1 [Example 699, (S)-2-(4-(difluoromethyl)-5-(4-(pyrazolo[1,5-a]pyridin-2-yl)-4,5,6,7-tetrahydro-1H-imidazo[4,5-c]pyridine-5-carbonyl)oxazol-2-yl)-2-methylpropanenitrile] | < 500 nM
5 | CC(C)(O)c1nc(C(F)F)c(C(=O)N2CCc3[nH]cnc3[C@H]2c2cc3c(Cl)cccn3n2)o1 [Example 700, (S)-(4-(4-chloropyrazolo[1,5-a]pyridin-2-yl)-6,7-dihydro-1H-imidazo[4,5-c]pyridin-5(4H)-yl)(4-(difluoromethyl)-2-(2-hydroxypropan-2-yl)oxazol-5-yl)methanone] | < 500 nM
6 | CC(C)(O)c1nc(C(F)F)c(C(=O)N2CCc3[nH]cnc3[C@@H]2c2cc3c(Cl)cccn3n2)o1 [Example 701, (R)-(4-(4-chloropyrazolo[1,5-a]pyridin-2-yl)-6,7-dihydro-1H-imidazo[4,5-c]pyridin-5(4H)-yl)(4-(difluoromethyl)-2-(2-hydroxypropan-2-yl)oxazol-5-yl)methanone] | 1000 to 5000 nM
7 | C[C@@H](O)c1nc(C(F)F)c(C(=O)N2CCc3[nH]cnc3[C@H]2c2cc3c(Cl)cccn3n2)o1 [Example 702, ((S)-4-(4-chloropyrazolo[1,5-a]pyridin-2-yl)-6,7-dihydro-1H-imidazo[4,5-c]pyridin-5(4H)-yl)(4-(difluoromethyl)-2-((R)-1-hydroxyethyl)oxazol-5-yl)methanone] | < 500 nM
8 | C[C@@H](O)c1nc(C(F)F)c(C(=O)N2CCc3[nH]cnc3[C@@H]2c2cc3c(Cl)cccn3n2)o1 [Example 703, ((R)-4-(4-chloropyrazolo[1,5-a]pyridin-2-yl)-6,7-dihydro-1H-imidazo[4.5-c]pyridin-5(4H)-yl)(4-(difluoromethyl)-2-((R)-1-hydroxyethyl)oxazol-5-yl)methanone] | 1000 to 5000 nM
9 | O=C(c1oc(C2(O)CC2)nc1C(F)F)N1CCc2[nH]cnc2[C@H]1c1cc2c(Cl)cccn2n1 [Example 704, (S)-(4-(4-chloropyrazolo[1,5-a]pyridin-2-yl)-6,7-dihydro-1H-imidazo[4,5-c]pyridin-5(4H)-yl)(4-(difluoromethyl)-2-(1-hydroxycyclopropyl)oxazol-5-yl)methanone] | < 500 nM
10 | Cc1nc([C@@H](C)O)oc1C(=O)N1CCc2[nH]cnc2[C@H]1c1cc2c(Cl)cccn2n1 [Example 706, ((S)-4-(4-chloropyrazolo[1,5-a]pyridin-2-yl)-6,7-dihydro-1H-imidazo[4,5-c]pyridin-5(4H)-yl)(2-((R)-1-hydroxyethyl)-4-methyloxazol-5-yl)methanone] | < 500 nM
11 | Cc1nc([C@H](C)O)oc1C(=O)N1CCc2[nH]cnc2[C@H]1c1cc2c(Cl)cccn2n1 [Example 708, ((S)-4-(4-chloropyrazolo[1,5-a]pyridin-2-yl)-6,7-dihydro-1H-imidazo[4,5-c]pyridin-5(4H)-yl)(2((S)-1-hydroxyethyl)-4-methyloxazol-5-yl)methanone] | < 500 nM
12 | C[C@@H](O)c1nc(C(F)F)c(C(=O)N2CCc3[nH]cnc3[C@H]2c2cc3c(F)cccn3n2)o1 [Example 710, (4-(difluoromethyl)-2-((R)-1-hydroxyethyl)oxazol-5-yl)((s)-4-(4-fluoropyrazolo[1,5-a]pyridin-2-yl)-6,7-dihydro-1H-imidazo[4,5-c]pyridin-5(4H)-yl)methanone] | < 500 nM
13 | CC(C)(O)c1nc(C(F)F)c(C(=O)N2CCc3[nH]cnc3[C@H]2c2cc3c(F)cccn3n2)o1 [Example 714, (S)-(4-(difluoromethyl)-2-(2-hydroxypropan-2-yl)oxazol-5-yl)(4-(4-fluoropyrazolo[1,5-a]pyridin-2-yl)-6,7-dihydro-1H-imidazo[4,5-c]pyridin-5(4H)-yl)methanone] | < 500 nM
14 | CC(C)(O)c1nc(C(F)F)c(C(=O)N2CCc3[nH]cnc3[C@@H]2c2cc3c(F)cccn3n2)o1 [Example 715, (R)-(4-(difluoromethyl)-2-(2-hydroxypropan-2-yl)oxazol-5-yl)(4-(4-fluoropyrazolo[1,5-a]pyridin-2-yl)-6,7-dihydro-1H-imidazo[4,5-c]pyridin-5(4H)-yl)methanone] | > 5000 nM

Further lines, results first:

Row | AC50 | Structure (SMILES)
15 | < 500 nM | Cn1nc(Cl)cc1C(=O)N1CCc2[nH]cnc2[C@H]1c1cc2ccccn2n1 [Example 680, (S)-(3-chloro-1-methyl-1H-pyrazol-5-yl)(4-(pyrazolo[1,5-a]pyridin-2-yl)-6,7-dihydro-1H-imidazo[4,5-c]pyridin-5(4H)-yl)methanone]
16 | 500 to 1000 nM | N#Cc1ncoc1C(=O)N1CCc2[nH]cnc2[C@H]1c1cc2ccc(Br)cn2n1 [Example 682, (S)-5-(4-(6-bromopyrazolo[1,5-a]pyridin-2-yl)-4,5,6,7-tetrahydro-1H-imidazo[4,5-c]pyridine-5-carbonyl)oxazole-4-carbonitrile]
17 | > 5000 nM | N#Cc1ncoc1C(=O)N1CCc2[nH]cnc2[C@@H]1c1cc2ccc(Br)cn2n1 [Example 683, (R)-5-(4-(6-bromopyrazolo[1,5-a]pyridin-2-yl)-4,5,6,7-tetrahydro-1H-imidazo[4,5-c]pyridine-5-carbonyl)oxazole-4-carbonitrile]
18 | 500 to 1000 nM | N#Cc1ncoc1C(=O)N1CCc2[nH]cnc2[C@H]1c1cc2ccc(Cl)cn2n1 [Example 684, (S)-5-(4-(6-chloropyrazolo[1,5-a]pyridin-2-yl)-4,5,6,7-tetrahydro-1H-imidazo[4,5-c]pyridine-5-carbonyl)oxazole-4-carbonitrile]
19 | < 500 nM | N#Cc1ncoc1C(=O)N1CCc2[nH]cnc2[C@H]1c1cc2c(Cl)cccn2n1 [Example 686, (S)-5-(4-(4-chloropyrazolo[1,5-a]pyridin-2-yl)-4,5,6,7-tetrahydro-1H-imidazo[4,5-c]pyridine-5-carbonyl)oxazole-4-carbonitrile]
20 | 1000 to 5000 nM | N#Cc1ncoc1C(=O)N1CCc2[nH]cnc2[C@@H]1c1cc2c(Cl)cccn2n1 [Example 687, (R)-5-(4-(4-chloropyrazolo[1,5-a]pyridin-2-yl)-4,5,6,7-tetrahydro-1H-imidazo[4,5-c]pyridine-5-carbonyl)oxazole-4-carbonitrile]
21 | < 500 nM | Cn1cc(-c2nnc(C(=O)N3CCc4[nH]cnc4[C@H]3c3cc4c(Cl)cccn4n3)o2)cn1 [Example 688, (S)-(4-(4-chloropyrazolo[1,5-a]pyridin-2-yl)-6,7-dihydro-1H-imidazo[4,5-c]pyridin-5(4H)-yl)(5-(1-methyl-1H-pyrazol-4-yl)-1,3,4-oxadiazol-2-yl)methanone]
22 | > 5000 nM | Cn1cc(-c2nnc(C(=O)N3CCc4[nH]cnc4[C@@H]3c3cc4c(Cl)cccn4n3)o2)cn1 [Example 689, (R)-(4-(4-chloropyrazolo[1,5-a]pyridin-2-yl)-6,7-dihydro-1H-imidazo[4,5-c]pyridin-5(4H)-yl)(5-(1-methyl-1H-pyrazol-4-yl)-1,3,4-oxadiazol-2-yl)methanone]
23 | < 500 nM | Cn1nc(Cl)nc1C(=O)N1CCc2[nH]cnc2[C@H]1c1cc2ccccn2n1 [Example 694, (S)-(3-chloro-1-methyl-1H-1,2,4-triazol-5-yl)(4-(pyrazolo[1,5-a]pyridin-2-yl)-6,7-dihydro-1H-imidazo[4,5-c]pyridin-5(4H)-yl)methanone]
24 | > 5000 nM | Cn1nc(Cl)nc1C(=O)N1CCc2[nH]cnc2[C@@H]1c1cc2ccccn2n1 [Example 695, (R)-(3-chloro-1-methyl-1H-1,2,4-triazol-5-yl)(4-(pyrazolo[1,5-a]pyridin-2-yl)-6,7-dihydro-1H-imidazo[4,5-c]pyridin-5(4H)-yl)methanone]
25 | < 500 nM | Cn1cc(-c2nnc(C(=O)N3CCc4[nH]cnc4[C@H]3c3cc4ccc(Cl)cn4n3)o2)cn1 [Example 696, (S)-(4-(6-chloropyrazolo[1,5-a]pyridin-2-yl)-6,7-dihydro-1H-imidazo[4,5-c]pyridin-5(4H)-yl)(5-(1-methyl-1H-pyrazol-4-yl)-1,3,4-oxadiazol-2-yl)methanone]
26 | > 5000 nM | Cn1cc(-c2nnc(C(=O)N3CCc4[nH]cnc4[C@@H]3c3cc4ccc(Cl)cn4n3)o2)cn1 [Example 697, (R)-(4-(6-chloropyrazolo[1,5-a]pyridin-2-yl)-6,7-dihydro-1H-imidazo[4,5-c]pyridin-5(4H)-yl)(5-(1-methyl-1H-pyrazol-4-yl)-1,3,4-oxadiazol-2-yl)methanone]
